# Data published in US5607926A, “Cephalosporin antibiotics” (Microcide Pharmaceuticals, Inc., priority 1995, dated 1997).
# Structures can show the parent of a compound that is named as a salt. Where two headings read alike, the source gives them in different places.
# What was measured:
# Type in all cases: cell-based
# [1] = system: S. aureus Col8A (Meth^S)(lac^-); assay: In vitro antibacterial evaluation, MIC by agar dilution, S. aureus Col8A; conditions: Staphylococcus aureus
# Summary of the method: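 Log-phase isolates were spot-inoculated at about 10^4 cfu onto Mueller-Hinton agar carrying duplicate two-fold compound levels, 128 μg/mL to ≤0.25 μg/mL, following NCCLS (1991). Plates were read after 16-20 h at 35°-36° C. The lowest growth-inhibiting concentration gave the MIC (μg/ml).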
# [2] = system: P. aeruginosa ATCC 27853; assay: In vitro antibacterial evaluation, MIC by agar dilution, P. aeruginosa ATCC 27853; conditions: Pseudomonas aeruginosa, ATCC27853, read-out: MIC
# Summary of the method: (§1)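 Log-phase cultures (4-6 h broth growth) are adjusted to 0.5 McFarland and diluted to give roughly 10^4 cfu per 1 μL spot. Spots go onto Mueller-Hinton agar containing test compound in two-fold dilutions (128 to ≤0.25 μg/mL), then plates incubate 16-20 hours at 35°-36° C before MIC reading.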
# [3] = system: E. coli ATCC 25922; assay: In vitro antibacterial evaluation, MIC by agar dilution, E. coli ATCC 25922; conditions: Escherichia coli, ATCC25922, read-out: MIC
# Summary of the method: as §1
# [4] = system: S. aureus ATCC 25923; assay: In vitro antibacterial evaluation, MIC by agar dilution, S. aureus ATCC 25923; conditions: Staphylococcus aureus, ATCC25923
# Summary of the method: as §1
# [5] = system: S. aureus 76 (Meth^R)(lac^+); assay: In vitro antibacterial evaluation, MIC by agar dilution, S. aureus 76; conditions: Staphylococcus aureus, read-out: MIC
# Summary of the method: as §1
# [6] = system: E. faecalis ATCC 29212; assay: In vitro antibacterial evaluation, MIC by agar dilution, E. faecalis ATCC 29212; conditions: Enterococcus faecalis, ATCC29212; E. faecalis ATCC 29212; read-out: MIC
# Summary of the method: as §1
# [7] = system: S. aureus ATCC 29213; assay: In vitro antibacterial evaluation, MIC by agar dilution, S. aureus ATCC 29213; conditions: Staphylococcus aureus, ATCC29213
# Summary of the method: as §1
# [8] = system: S. haemolyticus (Meth^R); assay: In vitro antibacterial evaluation, MIC by agar dilution, S. haemolyticus; conditions: Staphylococcus haemolyticus, read-out: MIC
# Summary of the method: as §1
# [9] = system: E. faecium ATCC 35667; assay: In vitro antibacterial evaluation, MIC by agar dilution, E. faecium ATCC 35667; conditions: Enterococcus faecium, ATCC35667, read-out: MIC
# Summary of the method: as §1
# [10] = system: S. epidermidis ATCC 31432; assay: In vitro antibacterial evaluation, MIC by agar dilution, S. epidermidis ATCC 31432; conditions: Staphylococcus epidermidis, ATCC31432
# Summary of the method: as §1
# [11] = S. aureus ATCC 29213, read-out: MIC
Compound,MIC [1],MIC [2],MIC [3],MIC [4],MIC [5],MIC [6],"MIC [7, 11]",MIC [8],MIC [9],MIC [10],"MIC ([4]; S. aureus ATCC 25923, read-out: MIC)","MIC ([10]; S. epidermidis ATCC 31432, read-out: MIC)",MIC [7]
"N#Cc1ccc(SC2=C(C(=O)O)N3C(=O)[C@@H](NC(=O)Cc4ccccc4)[C@H]3SC2)c(C#N)c1 [Cmpd 51, (7R)-7-[(Phenylacetyl)amino]-3-(2,4-dicyanophenylthio)-3-cephem-4-carboxylic acid]",< 0.25 µg/mL,> 32 µg/mL,> 32 µg/mL,< 0.25 µg/mL,8 µg/mL,4 µg/mL,0.5 µg/mL,32 µg/mL,4 µg/mL,< 0.25 µg/mL,–,–,–
"N#CCC(=O)N[C@@H]1C(=O)N2C(C(=O)O)=C(Sc3ccccc3C#N)CS[C@H]12 [Cmpd 52, (7R)-7-[(Cyanoacetyl)amino]-3-(2-cyanophenylthio)-3-cephem-4-carboxylic acid]",0.5 µg/mL,> 32 µg/mL,> 32 µg/mL,–,16 µg/mL,4 µg/mL,0.5 µg/mL,16 µg/mL,2 µg/mL,–,< 0.25 µg/mL,< 0.25 µg/mL,–
"N=C(N)SCc1ccccc1SC1=C(C(=O)O)N2C(=O)[C@@H](NC(=O)Cc3ccccc3)[C@H]2SC1 [Cmpd 64, (7R)-7-[(Phenylacetyl)amino]-3-(2-isothiouroniummethylphenylthio)-3-cephem-4-carboxylate, inner salt]",< 0.25 µg/mL,> 32 µg/mL,> 32 µg/mL,< 0.25 µg/mL,4 µg/mL,1 µg/mL,–,8 µg/mL,0.5 µg/mL,< 0.25 µg/mL,–,–,< 0.25 µg/mL
"O=C(Cc1ccccc1)N[C@@H]1C(=O)N2C(C(=O)O)=C(Sc3ccc(CSc4ncn[nH]4)cc3)CS[C@H]12 [Cmpd 65, (7R)-7-[(Phenylacetyl)amino]-3-(4-(1,2,4-triazol-5-ylthiomethyl)phenylthio)-3-cephem-4-carboxylic acid]",< 0.25 µg/mL,> 32 µg/mL,> 32 µg/mL,< 0.25 µg/mL,32 µg/mL,1 µg/mL,–,32 µg/mL,2 µg/mL,< 0.25 µg/mL,–,–,< 0.25 µg/mL
"O=C(Cc1ccccc1)N[C@@H]1C(=O)N2C(C(=O)O)=C(Sc3ccccc3CSc3ncn[nH]3)CS[C@H]12 [Cmpd 67, (7R)-7-[(Phenylacetyl)amino]-3-(2-(1,2,4-triazol-5-ylthiomethyl)phenylthio)-3-cephem-4-carboxylic acid]",< 0.25 µg/mL,> 32 µg/mL,> 32 µg/mL,< 0.25 µg/mL,16 µg/mL,2 µg/mL,–,16 µg/mL,2 µg/mL,< 0.25 µg/mL,–,–,< 0.25 µg/mL
O=C1CNC(SCc2ccccc2SC2=C(C(=O)O)N3C(=O)[C@@H](NC(=O)Cc4ccccc4)[C@H]3SC2)=N1 [Cmpd 68],< 0.25 µg/mL,> 32 µg/mL,> 32 µg/mL,< 0.25 µg/mL,16 µg/mL,4 µg/mL,–,32 µg/mL,4 µg/mL,< 0.25 µg/mL,–,–,< 0.25 µg/mL
"CN(C)C(SCc1ccccc1SC1=C(C(=O)[O-])N2C(=O)[C@@H](NC(=O)Cc3ccccc3)[C@H]2SC1)=[N+](C)C [Cmpd 69, (7R)-7-[(Phenylacetyl)amino]-3-(2-tetramethylisothiouroniummethylphenylthio)-3-cephem-4-carboxylate, inner salt]",< 0.25 µg/mL,> 32 µg/mL,> 32 µg/mL,< 0.25 µg/mL,16 µg/mL,2 µg/mL,–,32 µg/mL,2 µg/mL,< 0.25 µg/mL,–,–,< 0.25 µg/mL
O=C(Cc1ccccc1)N[C@@H]1C(=O)N2C(C(=O)O)=C(Sc3ccccc3CSc3ccncc3)CS[C@H]12 [Cmpd 70],< 0.25 µg/mL,> 32 µg/mL,> 32 µg/mL,< 0.25 µg/mL,16 µg/mL,0.5 µg/mL,–,32 µg/mL,2 µg/mL,< 0.25 µg/mL,–,–,< 0.25 µg/mL
Cn1nnnc1SCc1ccccc1SC1=C(C(=O)O)N2C(=O)[C@@H](NC(=O)Cc3ccccc3)[C@H]2SC1 [Cmpd 71],< 0.25 µg/mL,> 32 µg/mL,> 32 µg/mL,< 0.25 µg/mL,> 32 µg/mL,1 µg/mL,–,> 32 µg/mL,2 µg/mL,< 0.25 µg/mL,–,–,< 0.25 µg/mL
"O=C(Cc1ccccc1)N[C@@H]1C(=O)N2C(C(=O)[O-])=C(Sc3ccc[n+](Cc4ccccc4)c3-c3ccccc3)CS[C@H]12 [Cmpd 83, (7R)-7-[(Phenylacetyl)amino]-3-(2-phenyl-N-benzylpyridin-3-iumthio)-3-cephem-4-carboxylate]",< 0.25 µg/mL,> 32 µg/mL,> 32 µg/mL,< 0.25 µg/mL,16 µg/mL,1 µg/mL,–,32 µg/mL,2 µg/mL,< 0.25 µg/mL,–,–,–
"O=C(Cc1ccc(Cl)cc1)N[C@@H]1C(=O)N2C(C(=O)O)=C(Sc3cccnc3-c3ccccc3)CS[C@H]12 [Cmpd 84, (7R)-7-[(4-Chlorophenylacetyl)amino]-3-(2-phenylpyridin-3-ylthio)-3-cephem-4-carboxylic acid]",< 0.25 µg/mL,> 32 µg/mL,> 32 µg/mL,< 0.25 µg/mL,8 µg/mL,1 µg/mL,–,8 µg/mL,1 µg/mL,< 0.25 µg/mL,–,–,–
"O=C(Cc1ccccc1)N[C@@H]1C(=O)N2C(C(=O)O)=C(Sc3cnnn3-c3ccccc3)CS[C@H]12 [Cmpd 91, (7R)-7-[(Phenylacetyl)amino]-3-(1-N-phenyl-1,2,3-triazol-5-ylthio)-3-cephem-4-carboxylic acid]",< 0.25 µg/mL,> 32 µg/mL,> 32 µg/mL,< 0.25 µg/mL,16 µg/mL,1 µg/mL,–,> 32 µg/mL,2 µg/mL,< 0.25 µg/mL,–,–,–
"O=C(Cc1ccccc1)N[C@@H]1C(=O)N2C(C(=O)O)=C(Sc3nnnn3-c3ccccc3)CS[C@H]12 [Cmpd 94, (7R)-7-[(Phenylacetyl)amino]-3-(1-N-phenyltetrazol-5-ylthio)-3-cephem-4-carboxylic acid]",< 0.25 µg/mL,> 32 µg/mL,> 32 µg/mL,< 0.25 µg/mL,16 µg/mL,1 µg/mL,–,> 32 µg/mL,2 µg/mL,< 0.25 µg/mL,–,–,–
"O=C(Cc1ccccc1)N[C@@H]1C(=O)N2C(C(=O)O)=C(Sc3ccccc3-c3cnco3)CS[C@H]12 [Cmpd 95, (7R)-7-[(Phenylacetyl)amino]-3-(2-oxazol-5-ylphenylthio)-3-cephem-4-carboxylic acid]",< 0.25 µg/mL,> 32 µg/mL,> 32 µg/mL,< 0.25 µg/mL,8 µg/mL,4 µg/mL,–,16 µg/mL,4 µg/mL,< 0.25 µg/mL,–,–,–
